Experiment: xn = mol fraction of the nth substance listed
Details: 100 kPa, x1 = 0.24

O=S(=O)([N-]S(=O)(=O)C(F)(F)F)C(F)(F)F.O=S(=O)([N-]S(=O)(=O)C(F)(F)F)C(F)(F)F.[Mg+2] + CCCC[N+]1(C)CCCC1.O=S(=O)([N-]S(=O)(=O)C(F)(F)F)C(F)(F)F
Details	electrical conductivity [S/m]
279.2 K	0.003
282.4 K	0.005
286.1 K	0.006
289.5 K	0.009
293 K	0.013
296.9 K	0.017
300.2 K	0.022
304.4 K	0.031
310.6 K	0.046
317.5 K	0.07
323.8 K	0.096
334.5 K	0.159
345.4 K	0.252
355.5 K	0.346
363.5 K	0.461
372.9 K	0.574
386 K	0.786
400.6 K	1.08
417.1 K	1.44

O=S(=O)([N-]S(=O)(=O)C(F)(F)F)C(F)(F)F.O=S(=O)([N-]S(=O)(=O)C(F)(F)F)C(F)(F)F.[Zn+2] + CCCC[N+]1(C)CCCC1.O=S(=O)([N-]S(=O)(=O)C(F)(F)F)C(F)(F)F
Details	electrical conductivity [S/m]
337.3 K	0.163
344.9 K	0.213
366.8 K	0.399
375.2 K	0.508
391 K	0.805
430.4 K	1.79
449.5 K	2.51

O=S(=O)([N-]S(=O)(=O)C(F)(F)F)C(F)(F)F.[Li+] + CCCC[N+]1(C)CCCC1.O=S(=O)([N-]S(=O)(=O)C(F)(F)F)C(F)(F)F
Details	electrical conductivity [S/m]
272.9 K	0.005
279.8 K	0.01
288.8 K	0.027
295.1 K	0.052
305.1 K	0.098
325.1 K	0.235
338.2 K	0.329
360.2 K	0.633
371.2 K	0.846
385.4 K	1.24
409.4 K	1.88
429.6 K	2.77

O=S(=O)([N-]S(=O)(=O)C(F)(F)F)C(F)(F)F.[Na+] + CCCC[N+]1(C)CCCC1.O=S(=O)([N-]S(=O)(=O)C(F)(F)F)C(F)(F)F
Details	electrical conductivity [S/m]
274.2 K	0.006
283.8 K	0.02
291.9 K	0.041
300.2 K	0.07
308.6 K	0.119
323.4 K	0.223
356.5 K	0.663
362.4 K	0.805
380.6 K	1.24
417.8 K	2.45
434.2 K	3.04

From a compilation of properties of binary mixtures (doi:10.1021/acs.jpcc.8b05573)
